Test results published in ChEMBL document CHEMBL5465560, “Selectivity Literature for EUbOPEN Chemogenomic Library” (2024).

Assays:
[1] = target: T1, Serine/threonine-protein kinase 17A (Homo sapiens) (UniProt Q9UEE5); conditions: at 10 µM
T1 sequence (whole entry): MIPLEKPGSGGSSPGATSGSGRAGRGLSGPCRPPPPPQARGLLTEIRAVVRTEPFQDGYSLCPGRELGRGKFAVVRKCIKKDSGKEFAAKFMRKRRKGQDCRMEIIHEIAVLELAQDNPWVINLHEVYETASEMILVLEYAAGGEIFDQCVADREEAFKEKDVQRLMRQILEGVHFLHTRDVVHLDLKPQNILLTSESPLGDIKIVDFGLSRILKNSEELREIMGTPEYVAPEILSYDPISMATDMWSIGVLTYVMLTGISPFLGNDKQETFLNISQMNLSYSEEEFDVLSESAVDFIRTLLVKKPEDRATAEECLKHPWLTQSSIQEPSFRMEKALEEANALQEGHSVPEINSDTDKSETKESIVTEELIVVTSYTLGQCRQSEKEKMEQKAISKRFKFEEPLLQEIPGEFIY

[2] = target: Serine/threonine-protein kinase 38 (Homo sapiens) (UniProt Q15208); experiment: Selectivity interaction (ActivX KiNativ screen (kinase selectivity in THP-1 cell lysates)) EUB0000639a STK38; type: subcellular; conditions: lysate, at 0.2 µM
Chain of Serine/threonine-protein kinase 38 (Homo sapiens) (Q15208 2-465 limits assumed): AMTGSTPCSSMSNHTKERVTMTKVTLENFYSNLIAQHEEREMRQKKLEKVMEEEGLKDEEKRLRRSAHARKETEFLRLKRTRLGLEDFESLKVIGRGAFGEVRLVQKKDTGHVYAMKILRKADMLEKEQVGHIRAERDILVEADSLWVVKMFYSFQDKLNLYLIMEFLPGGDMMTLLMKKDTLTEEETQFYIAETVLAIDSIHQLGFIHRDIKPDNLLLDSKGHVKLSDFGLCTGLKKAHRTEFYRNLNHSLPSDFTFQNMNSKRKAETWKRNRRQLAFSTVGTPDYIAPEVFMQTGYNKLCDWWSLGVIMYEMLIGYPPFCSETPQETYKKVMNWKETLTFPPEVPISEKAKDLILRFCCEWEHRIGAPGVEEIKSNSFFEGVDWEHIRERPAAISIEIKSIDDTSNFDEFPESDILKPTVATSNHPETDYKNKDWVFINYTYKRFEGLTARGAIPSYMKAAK

[3] = target: Cyclin-dependent kinase 18 (Homo sapiens) (UniProt Q07002); experiment: Selectivity interaction (ActivX KiNativ screen (kinase selectivity in THP-1 cell lysates)) EUB0000639a CDK18; type: subcellular; conditions: lysate, at 5 µM
Chain of Cyclin-dependent kinase 18 (Homo sapiens) (Q07002 whole entry): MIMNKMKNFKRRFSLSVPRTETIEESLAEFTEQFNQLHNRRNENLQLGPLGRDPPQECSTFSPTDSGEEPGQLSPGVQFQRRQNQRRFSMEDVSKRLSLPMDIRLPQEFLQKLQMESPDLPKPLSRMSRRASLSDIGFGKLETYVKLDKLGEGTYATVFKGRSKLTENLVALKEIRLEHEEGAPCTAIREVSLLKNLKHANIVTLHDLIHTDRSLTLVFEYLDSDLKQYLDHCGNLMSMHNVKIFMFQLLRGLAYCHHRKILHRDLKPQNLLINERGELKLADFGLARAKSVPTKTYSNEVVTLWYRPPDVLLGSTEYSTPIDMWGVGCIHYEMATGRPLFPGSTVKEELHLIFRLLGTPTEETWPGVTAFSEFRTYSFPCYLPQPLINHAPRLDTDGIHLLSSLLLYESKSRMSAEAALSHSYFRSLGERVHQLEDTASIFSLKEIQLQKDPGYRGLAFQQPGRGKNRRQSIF

[4] = target: T2, 5-hydroxytryptamine receptor 1A (Homo sapiens) (UniProt P08908); experiment: Selectivity interaction (Panel of non-epigenetic targets (kinases, GPCRs, ion channels, and transporters, Eurofins) ) EUB0000271b HTR1A; conditions: at 1 µM
T2 sequence (whole entry): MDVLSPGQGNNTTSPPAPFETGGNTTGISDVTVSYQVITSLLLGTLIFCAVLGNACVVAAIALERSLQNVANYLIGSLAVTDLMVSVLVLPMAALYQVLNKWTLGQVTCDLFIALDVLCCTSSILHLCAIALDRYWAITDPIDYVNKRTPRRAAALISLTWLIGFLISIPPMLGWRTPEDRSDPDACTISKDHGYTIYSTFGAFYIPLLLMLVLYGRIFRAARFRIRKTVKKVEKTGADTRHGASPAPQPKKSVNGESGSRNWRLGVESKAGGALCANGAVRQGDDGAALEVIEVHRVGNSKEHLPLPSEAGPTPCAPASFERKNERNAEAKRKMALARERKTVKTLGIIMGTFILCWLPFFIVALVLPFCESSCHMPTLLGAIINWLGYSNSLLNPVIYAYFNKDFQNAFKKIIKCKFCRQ

[5] = target: T3, PAN2-PAN3 deadenylation complex subunit PAN3 (Homo sapiens) (UniProt Q58A45); experiment: Selectivity interaction (ActivX KiNativ screen (ex vivo kinase selectivity in human PBMCs)) EUB0001619a PAN3; type: cell-based; conditions: PBMC, at 1 µM
T3 sequence (whole entry): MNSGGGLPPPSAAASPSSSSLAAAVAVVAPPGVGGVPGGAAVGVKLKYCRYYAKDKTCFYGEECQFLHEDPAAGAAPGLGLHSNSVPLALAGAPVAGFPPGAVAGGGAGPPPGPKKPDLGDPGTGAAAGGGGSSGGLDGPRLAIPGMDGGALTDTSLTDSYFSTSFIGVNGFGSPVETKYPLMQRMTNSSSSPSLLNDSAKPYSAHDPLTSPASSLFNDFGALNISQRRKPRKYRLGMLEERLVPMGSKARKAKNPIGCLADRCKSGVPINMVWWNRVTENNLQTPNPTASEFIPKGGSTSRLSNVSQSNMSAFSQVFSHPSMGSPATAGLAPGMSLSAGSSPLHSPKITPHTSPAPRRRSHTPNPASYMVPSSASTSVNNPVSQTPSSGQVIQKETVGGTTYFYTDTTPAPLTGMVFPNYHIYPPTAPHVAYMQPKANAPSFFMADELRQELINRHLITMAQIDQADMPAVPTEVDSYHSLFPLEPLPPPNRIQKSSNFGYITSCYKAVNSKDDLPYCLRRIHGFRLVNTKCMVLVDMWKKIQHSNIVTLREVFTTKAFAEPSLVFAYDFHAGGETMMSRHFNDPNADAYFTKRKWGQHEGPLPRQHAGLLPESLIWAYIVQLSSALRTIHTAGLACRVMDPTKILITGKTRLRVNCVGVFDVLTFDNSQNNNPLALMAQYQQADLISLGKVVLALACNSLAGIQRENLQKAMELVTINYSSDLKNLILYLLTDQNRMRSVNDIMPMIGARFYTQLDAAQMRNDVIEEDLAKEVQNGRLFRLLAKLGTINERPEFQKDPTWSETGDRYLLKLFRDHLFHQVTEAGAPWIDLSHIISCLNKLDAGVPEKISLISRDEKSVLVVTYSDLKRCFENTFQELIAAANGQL

[6] = target: Activated CDC42 kinase 1 (Homo sapiens, UniProt Q07912); experiment: Selectivity interaction (KinomeScan (DiscoverX)) EUB0000607a TNK2; conditions: at 10 µM
Chain of Activated CDC42 kinase 1 (Q07912 whole entry, looked up): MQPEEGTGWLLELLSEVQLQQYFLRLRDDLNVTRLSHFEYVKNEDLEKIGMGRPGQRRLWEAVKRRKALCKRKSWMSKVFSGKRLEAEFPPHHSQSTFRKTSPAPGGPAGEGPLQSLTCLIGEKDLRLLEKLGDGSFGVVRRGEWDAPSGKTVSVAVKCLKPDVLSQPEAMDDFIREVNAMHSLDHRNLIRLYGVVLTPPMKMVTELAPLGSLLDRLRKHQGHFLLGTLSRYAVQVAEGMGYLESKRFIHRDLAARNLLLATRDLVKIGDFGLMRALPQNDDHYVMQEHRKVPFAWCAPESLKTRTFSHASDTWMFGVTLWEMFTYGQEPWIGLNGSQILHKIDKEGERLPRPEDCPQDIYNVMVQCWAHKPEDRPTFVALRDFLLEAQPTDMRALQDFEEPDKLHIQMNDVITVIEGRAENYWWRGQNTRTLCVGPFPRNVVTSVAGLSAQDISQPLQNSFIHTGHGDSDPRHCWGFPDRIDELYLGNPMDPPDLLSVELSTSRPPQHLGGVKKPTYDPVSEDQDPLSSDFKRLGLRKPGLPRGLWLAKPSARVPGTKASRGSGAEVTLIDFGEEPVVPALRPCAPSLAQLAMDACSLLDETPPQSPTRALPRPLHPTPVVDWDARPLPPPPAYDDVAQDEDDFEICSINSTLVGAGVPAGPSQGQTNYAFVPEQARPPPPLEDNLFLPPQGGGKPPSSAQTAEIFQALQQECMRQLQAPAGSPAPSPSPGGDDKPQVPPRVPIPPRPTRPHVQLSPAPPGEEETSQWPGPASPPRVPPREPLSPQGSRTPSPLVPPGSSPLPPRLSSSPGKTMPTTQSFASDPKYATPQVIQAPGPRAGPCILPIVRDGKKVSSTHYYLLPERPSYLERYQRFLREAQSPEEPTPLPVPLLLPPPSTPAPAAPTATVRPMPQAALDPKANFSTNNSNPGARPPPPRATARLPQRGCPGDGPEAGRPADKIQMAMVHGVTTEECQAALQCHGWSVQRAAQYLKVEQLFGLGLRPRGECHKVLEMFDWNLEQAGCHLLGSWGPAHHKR

## Cc1cc([C@@H](C)Nc2ccccc2C(=O)O)c2nc(N3CCOCC3)cc(=O)n2c1 [AZD-6482]
[1]
  % of control: 98%

## CC[C@@H]1[C@H](F)C(=O)N[C@@H]1COc1nccc2cc(C(N)=O)c(OC)cc12 [ZIMLOVISERTIB]
[2]
  % of inhibition: 22.6%
[3]
  % of inhibition: 6.5%

## Cc1cc(C)cc([C@@H]2c3cc(C)ccc3NC(=O)CN2C(=O)c2ccc(Br)s2)c1
[4]
  % of inhibition: 5%

## N#Cc1cccc(-c2c[nH]c3ncnc(N4CCOCC4)c23)c1
[5]
  % of inhibition: 15%

## CNC(=O)Nc1ccc(-c2nc(N3CC4CCC(C3)O4)c3cnn(C4CCC5(CC4)OCCO5)c3n2)cc1
[6]
  % of control: 84%
